Values of other authors as cited in patent US20010039006A1, “Toxicity typing using embryoid bodies” (priority 1998, published 2001).
Like-named read-outs stand apart in the source and are kept apart here.

How the values were obtained:
[1] = human, in vivo
[2] = in vivo
[3] = for liver toxicity: known toxicity of the marketed drug
[4] = human, in vivo; remark: listed apart in the source

N=C(N)NCCCCCCC(=O)NC(O)C(=O)NCCCCNCCCN (stereo not drawn) [deoxyspergualin]
TOXICITIES CV [1]: +

c1ccc2c(c1)cc1ccc3cccc4ccc2c1c34 [benzo(a)pyrene]
TOXICITIES CV [1]: +

N.N.O=C([O-])C1(C(=O)[O-])CCC1.[Pt+2] [carboplatin]
TOXICITIES GI [2]: +

CCOC(=O)C(C)(C)Oc1ccc(Cl)cc1 [clofibrate]
TOXICITIES LIVER ([3]; Table 1): ntc

CCC(=O)O[C@H]1[C@H](O[C@@H]2[C@@H](C)[C@H](O[C@H]3C[C@@](C)(OC)[C@@H](O)[C@H](C)O3)[C@@H](C)C(=O)O[C@H](CC)[C@@](C)(O)[C@H](O)[C@@H](C)C(=O)[C@H](C)C[C@@]2(C)O)O[C@H](C)C[C@@H]1N(C)C [erythromycin estolate]
liver toxicity [3]: known liver toxicity

CC(=O)Nc1ccc(O)cc1 [acetominophen]
TOXICITIES LIVER ([3]; human, in vivo): +

Cc1c(C)c2c(c(C)c1O)CCC(C)(COc1ccc(CC3SC(=O)NC3=O)cc1)O2 (stereo not drawn) [troglitazone]
liver toxicity [3]: rare but severe liver toxicity

CN(CCOc1ccc(CC2SC(=O)NC2=O)cc1)c1ccccn1 (stereo not drawn) [rosiglitazone]
TOXICITIES LIVER ([3]; Table 1): ntc

COc1nc(C(Cl)(Cl)Cl)c(Cl)c(OC)c1Cl [penclomedine]
TOXICITIES CNS [4]: +
